According to PubChem BioAssay (NCI):
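Protocol summary: plate cells (96-well), add compound at 5 concentrations, incubate 48 h, interpolate endpoints linearly. GI50 marks 50% less growth. TGI is the concentration that stops growth completely.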

Legend:
Assay in all cases: growth of human tumour cells (NCI), 48 h; in the data active = GI50 below about 0.43 µM; inactive = the rest
HOP-62 NSCLC = tested on: HOP-62 NSCLC
HCT-116 colon = tested on: HCT-116 colon
KM12 colon = tested on: KM12 colon
SK-MEL-2 melanoma = tested on: SK-MEL-2 melanoma
SNB-19 CNS = tested on: SNB-19 CNS
SK-MEL-5 melanoma = tested on: SK-MEL-5 melanoma
HL-60(TB) leukemia = tested on: HL-60(TB) leukemia
U251 CNS = tested on: U251 CNS
NCI-H226 lung = tested on: NCI-H226 lung
PC-3 prostate = tested on: PC-3 prostate

CC1=CC(=O)NP(=O)(Oc2ccc(Cl)cc2)N1 (stereo not given)
> 100 µM: TGI (HOP-62 NSCLC) | TGI (HCT-116 colon) | TGI (KM12 colon) | TGI (SK-MEL-2 melanoma) | TGI (SNB-19 CNS) | TGI (SK-MEL-5 melanoma) | TGI (HL-60(TB) leukemia) | TGI (U251 CNS) | TGI (NCI-H226 lung)

COC(=O)NC1(NC(=O)OC)NC(=O)c2ccccc2N1
> 100 µM: TGI (HOP-62 NSCLC) | TGI (HCT-116 colon) | TGI (KM12 colon) | TGI (SK-MEL-2 melanoma) | TGI (SNB-19 CNS) | TGI (SK-MEL-5 melanoma) | TGI (HL-60(TB) leukemia) | TGI (NCI-H226 lung) | TGI (PC-3 prostate)

CCOC(=O)c1ccc(N=Cc2ccc(N(CCC#N)S(=O)(=O)c3ccccc3)cc2C)cc1
> 100 µM: TGI (HOP-62 NSCLC) | TGI (HCT-116 colon) | TGI (KM12 colon) | TGI (SK-MEL-2 melanoma) | TGI (SNB-19 CNS) | TGI (SK-MEL-5 melanoma) | TGI (HL-60(TB) leukemia) | TGI (U251 CNS)

Cc1nc(-n2nc(-c3ccccc3)cc2-c2ccccc2)sc1C(=O)CC(=O)C(=O)Nc1ccc(Cl)c(Cl)c1
> 100 µM: TGI (HOP-62 NSCLC) | TGI (HCT-116 colon) | TGI (KM12 colon) | TGI (SK-MEL-2 melanoma) | TGI (SNB-19 CNS) | TGI (HL-60(TB) leukemia) | TGI (U251 CNS) | TGI (NCI-H226 lung)

CNc1c2ccccc2nc2occ(Cl)c12
> 100 µM: TGI (HOP-62 NSCLC) | TGI (KM12 colon) | TGI (SK-MEL-2 melanoma) | TGI (SNB-19 CNS) | TGI (U251 CNS) | TGI (NCI-H226 lung) | TGI (PC-3 prostate)
40.5 µM: TGI (HCT-116 colon)
inactive: GI50 (HOP-62 NSCLC) 40.7 µM | GI50 (HCT-116 colon) 17.1 µM | GI50 (KM12 colon) 32.6 µM | GI50 (SK-MEL-2 melanoma) > 100 µM | GI50 (SNB-19 CNS) 51.6 µM | GI50 (SK-MEL-5 melanoma) 16.6 µM | GI50 (U251 CNS) 31.4 µM | GI50 (NCI-H226 lung) 32.9 µM | GI50 (PC-3 prostate) 26.5 µM
34.8 µM: TGI (SK-MEL-5 melanoma)

C=C1C(=O)OC2CC1C(OC(=O)/C=C/c1ccccc1)C/C(C)=C/CC/C(C)=C/CCC2(C)O (stereo not given)
3.51 µM: TGI (SNB-19 CNS)
2.85 µM: TGI (SK-MEL-2 melanoma)
3.22 µM: TGI (PC-3 prostate)
3.23 µM: TGI (HOP-62 NSCLC)
2.38 µM: TGI (HCT-116 colon)
3.57 µM: TGI (NCI-H226 lung)
3.41 µM: TGI (KM12 colon)
4.28 µM: TGI (U251 CNS)
3.68 µM: TGI (SK-MEL-5 melanoma)

OCc1c(-c2cccs2)oc(-c2cccs2)c1CO
70 µM: TGI (HL-60(TB) leukemia)
> 100 µM: TGI (HOP-62 NSCLC) | TGI (HCT-116 colon) | TGI (KM12 colon) | TGI (SNB-19 CNS) | TGI (SK-MEL-5 melanoma) | TGI (U251 CNS) | TGI (NCI-H226 lung) | TGI (PC-3 prostate)
inactive: GI50 (HOP-62 NSCLC) > 100 µM | GI50 (HCT-116 colon) 44.1 µM | GI50 (KM12 colon) 21.3 µM | GI50 (SNB-19 CNS) 67.5 µM | GI50 (SK-MEL-5 melanoma) 39 µM | GI50 (HL-60(TB) leukemia) 21.1 µM | GI50 (U251 CNS) 71.9 µM | GI50 (NCI-H226 lung) 50.3 µM | GI50 (PC-3 prostate) 37.7 µM

COc1ccc2nc3cc(Cl)ccc3c(Sc3ccc(N)cc3)c2c1
25.3 µM: TGI (SK-MEL-5 melanoma)
49.8 µM: TGI (HOP-62 NSCLC)
22.6 µM: TGI (U251 CNS)
33.4 µM: TGI (SNB-19 CNS)
19.4 µM: TGI (KM12 colon)
17.3 µM: TGI (HCT-116 colon)
34.3 µM: TGI (NCI-H226 lung)
27.7 µM: TGI (SK-MEL-2 melanoma)

CC(=O)/C=C1\CC(=O)N(C)c2ccccc2N1
> 100 µM: TGI (HOP-62 NSCLC) | TGI (HCT-116 colon) | TGI (KM12 colon) | TGI (SK-MEL-2 melanoma) | TGI (SNB-19 CNS) | TGI (U251 CNS) | TGI (NCI-H226 lung)
2.05 µM: TGI (SK-MEL-5 melanoma)

COc1ccc2c(c1OC)C(=O)C2
> 100 µM: TGI (HOP-62 NSCLC) | TGI (HCT-116 colon) | TGI (KM12 colon) | TGI (SK-MEL-2 melanoma) | TGI (SNB-19 CNS) | TGI (SK-MEL-5 melanoma) | TGI (HL-60(TB) leukemia) | TGI (U251 CNS) | TGI (NCI-H226 lung)

Cn1c(=O)nc2n(-c3ccc(Br)cc3)c3ccccc3nc-2c1=O
16.3 µM: TGI (HCT-116 colon)
64.8 µM: TGI (HOP-62 NSCLC)
36.8 µM: TGI (KM12 colon)
9.3 µM: TGI (SNB-19 CNS)
19.9 µM: TGI (U251 CNS)
28.5 µM: TGI (SK-MEL-2 melanoma) | TGI (NCI-H226 lung)
4.12 µM: TGI (SK-MEL-5 melanoma)

Cc1nc2ccccc2c(=O)n1/N=C(\N=Nc1ccc(Cl)cc1)c1cccc(-c2ccco2)c1
62.6 µM: TGI (HOP-62 NSCLC)
> 100 µM: TGI (U251 CNS)
69.4 µM: TGI (HL-60(TB) leukemia)
95.5 µM: TGI (HCT-116 colon)
57.4 µM: TGI (SK-MEL-5 melanoma)

O=C1c2ccccc2C(=O)N1c1ccc(Cc2ccc(N3C(=O)c4ccccc4C3=O)cc2)cc1
> 100 µM: TGI (HOP-62 NSCLC) | TGI (HCT-116 colon) | TGI (KM12 colon) | TGI (SK-MEL-2 melanoma) | TGI (SNB-19 CNS) | TGI (SK-MEL-5 melanoma) | TGI (U251 CNS) | TGI (NCI-H226 lung) | TGI (PC-3 prostate)

COc1ccccc1/C=C1\C(=O)N(C(=O)Cc2ccccc2)N=C1C
> 100 µM: TGI (HOP-62 NSCLC) | TGI (HCT-116 colon) | TGI (KM12 colon) | TGI (SK-MEL-2 melanoma) | TGI (SNB-19 CNS) | TGI (SK-MEL-5 melanoma) | TGI (HL-60(TB) leukemia) | TGI (U251 CNS) | TGI (NCI-H226 lung)

O=C1CCCC2=C1CC1=C(CCCC1=O)N2c1ccc(Cl)cc1
> 100 µM: TGI (HOP-62 NSCLC) | TGI (HCT-116 colon) | TGI (KM12 colon) | TGI (SNB-19 CNS) | TGI (SK-MEL-5 melanoma) | TGI (HL-60(TB) leukemia) | TGI (U251 CNS) | TGI (NCI-H226 lung) | TGI (PC-3 prostate)

C=CC[P@]1(=O)O[C@H](c2ccccc2)C(C)N1C(C)C (stereo not given in full)
> 100 µM: TGI (HOP-62 NSCLC) | TGI (HCT-116 colon) | TGI (KM12 colon) | TGI (SK-MEL-2 melanoma) | TGI (SNB-19 CNS) | TGI (SK-MEL-5 melanoma) | TGI (HL-60(TB) leukemia) | TGI (U251 CNS) | TGI (NCI-H226 lung)

O=C1OC(C(O)CO)C(C(O)CO)OC1=O (stereo not given)
> 10 µM: TGI (HOP-62 NSCLC) | TGI (KM12 colon) | TGI (SNB-19 CNS) | TGI (SK-MEL-5 melanoma) | TGI (HL-60(TB) leukemia) | TGI (U251 CNS) | TGI (NCI-H226 lung) | TGI (PC-3 prostate)

O=C1NC(c2ccccc2)(c2ccccc2)C(=O)N1CCCCCCN1C(=O)NC(c2ccccc2)(c2ccccc2)C1=O
72.1 µM: TGI (SNB-19 CNS)
66.2 µM: TGI (SK-MEL-2 melanoma)
57.9 µM: TGI (SK-MEL-5 melanoma)
> 100 µM: TGI (HOP-62 NSCLC) | TGI (KM12 colon) | TGI (HL-60(TB) leukemia) | TGI (U251 CNS) | TGI (NCI-H226 lung)

O=S(=O)(F)Cc1ccccc1
> 100 µM: TGI (HOP-62 NSCLC) | TGI (HCT-116 colon) | TGI (KM12 colon) | TGI (SK-MEL-2 melanoma) | TGI (SNB-19 CNS) | TGI (SK-MEL-5 melanoma) | TGI (U251 CNS) | TGI (NCI-H226 lung) | TGI (PC-3 prostate)

COC1CCCc2c(OC(C)=O)ccc(OC(C)=O)c21 (stereo not given)
> 100 µM: TGI (HOP-62 NSCLC) | TGI (HCT-116 colon) | TGI (KM12 colon) | TGI (SK-MEL-2 melanoma) | TGI (SNB-19 CNS) | TGI (SK-MEL-5 melanoma) | TGI (HL-60(TB) leukemia) | TGI (U251 CNS) | TGI (NCI-H226 lung)

COc1ccc(-c2cc(=O)c3c(O)c(O)c(OC)cc3o2)cc1O
> 100 µM: TGI (HOP-62 NSCLC) | TGI (HCT-116 colon) | TGI (KM12 colon) | TGI (SK-MEL-2 melanoma) | TGI (SNB-19 CNS) | TGI (SK-MEL-5 melanoma) | TGI (HL-60(TB) leukemia) | TGI (U251 CNS) | TGI (NCI-H226 lung)

Cc1cccc(NC(=O)c2c(N)[n+]([O-])c3ccccc3[n+]2[O-])c1
27 µM: TGI (NCI-H226 lung)
3.65 µM: TGI (U251 CNS)
30.3 µM: TGI (KM12 colon)
23.3 µM: TGI (SK-MEL-2 melanoma)
17 µM: TGI (SK-MEL-5 melanoma)
29.3 µM: TGI (SNB-19 CNS)
56.7 µM: TGI (HL-60(TB) leukemia)
31.3 µM: TGI (HOP-62 NSCLC)
20.3 µM: TGI (HCT-116 colon)
